Measured values from ChEMBL document CHEMBL1139057, “Rotenoids and flavonoids with anti-invasion of HT1080, anti-proliferation of U937, and differentiation-inducing activity in HL-60 from Erycibe expansa” (Bioorg Med Chem, 2007).
Activity calls are given as the source filed them. The rule behind the calls is not given here.

What was measured:
HT-1080 [1] = experiment: Inhibition of invasion of human HT1080 cells at 1 uM after 24 hrs; format: functional; conditions: HT-1080, 24 h
HT-1080 [2] = experiment: Inhibition of invasion of human HT1080 cells at 3 uM after 24 hrs; format: functional; conditions: HT-1080, 24 h
HT-1080 [3] = experiment: Inhibition of invasion of human HT1080 cells at 10 uM after 24 hrs; format: functional; conditions: HT-1080, 24 h
HT-1080 [4] = experiment: Inhibition of invasion of human HT1080 cells at 30 uM after 24 hrs; format: functional; conditions: HT-1080, 24 h
HT-1080 [5] = experiment: Antiproliferative activity against human HT1080 cells at 1 uM after 24 hrs by MTT assay; format: functional; conditions: HT-1080, 24 h
HT-1080 [6] = experiment: Antiproliferative activity against human HT1080 cells at 3 uM after 24 hrs by MTT assay; format: functional; conditions: HT-1080, 24 h
HT-1080 [7] = experiment: Antiproliferative activity against human HT1080 cells at 10 uM after 24 hrs by MTT assay; format: functional; conditions: HT-1080, 24 h
HT-1080 [8] = experiment: Antiproliferative activity against human HT1080 cells at 30 uM after 24 hrs by MTT assay; format: functional; conditions: HT-1080, 24 h
HT-1080 [9] = experiment: Antiproliferative activity against human HT1080 cells at 1 uM after 48 hrs by MTT assay; format: functional; conditions: HT-1080, 48 h
HT-1080 [10] = experiment: Antiproliferative activity against human HT1080 cells at 3 uM after 48 hrs by MTT assay; format: functional; conditions: HT-1080, 48 h
HT-1080 [11] = experiment: Antiproliferative activity against human HT1080 cells at 10 uM after 48 hrs by MTT assay; format: functional; conditions: HT-1080, 48 h
HT-1080 [12] = experiment: Antiproliferative activity against human HT1080 cells at 30 uM after 48 hrs by MTT assay; format: functional; conditions: HT-1080, 48 h
HT-1080 [13] = experiment: Antiproliferative activity against human HT1080 cells at 1 uM after 72 hrs by MTT assay; format: functional; conditions: HT-1080, 72 h
HT-1080 [14] = experiment: Antiproliferative activity against human HT1080 cells at 3 uM after 72 hrs by MTT assay; format: functional; conditions: HT-1080, 72 h
HT-1080 [15] = experiment: Antiproliferative activity against human HT1080 cells at 10 uM after 72 hrs by MTT assay; format: functional; conditions: HT-1080, 72 h
HT-1080 [16] = experiment: Antiproliferative activity against human HT1080 cells at 30 uM after 72 hrs by MTT assay; format: functional; conditions: HT-1080, 72 h
HT-1080 [17] = experiment: Antiproliferative activity against human HT1080 cells at 1 uM after 24 hrs by calcein-AM assay; format: functional; conditions: HT-1080, 24 h
HT-1080 [18] = experiment: Antiproliferative activity against human HT1080 cells at 3 uM after 24 hrs by calcein-AM assay; format: functional; conditions: HT-1080, 24 h
HT-1080 [19] = experiment: Antiproliferative activity against human HT1080 cells at 10 uM after 24 hrs by calcein-AM assay; format: functional; conditions: HT-1080, 24 h
HT-1080 [20] = experiment: Antiproliferative activity against human HT1080 cells at 30 uM after 24 hrs by calcein-AM assay; format: functional; conditions: HT-1080, 24 h
HT-1080 [21] = experiment: Antiproliferative activity against human HT1080 cells at 1 uM after 48 hrs by calcein-AM assay; format: functional; conditions: HT-1080, 48 h
HT-1080 [22] = experiment: Antiproliferative activity against human HT1080 cells at 3 uM after 48 hrs by calcein-AM assay; format: functional; conditions: HT-1080, 48 h
HT-1080 [23] = experiment: Antiproliferative activity against human HT1080 cells at 10 uM after 48 hrs by calcein-AM assay; format: functional; conditions: HT-1080, 48 h
HT-1080 [24] = experiment: Antiproliferative activity against human HT1080 cells at 30 uM after 48 hrs by calcein-AM assay; format: functional; conditions: HT-1080, 48 h
HT-1080 [25] = experiment: Antiproliferative activity against human HT1080 cells at 1 uM after 72 hrs by calcein-AM assay; format: functional; conditions: HT-1080, 72 h
HT-1080 [26] = experiment: Antiproliferative activity against human HT1080 cells at 3 uM after 72 hrs by calcein-AM assay; format: functional; conditions: HT-1080, 72 h
HT-1080 [27] = experiment: Antiproliferative activity against human HT1080 cells at 10 uM after 72 hrs by calcein-AM assay; format: functional; conditions: HT-1080, 72 h
HT-1080 [28] = experiment: Antiproliferative activity against human HT1080 cells at 30 uM after 72 hrs by calcein-AM assay; format: functional; conditions: HT-1080, 72 h
HT-1080 [29] = experiment: Inhibition of proMMP2 production in human HT1080 cells by gelatin zymography analysis; format: functional, cell-based
HT-1080 [30] = experiment: Inhibition of proMMP9 production in human HT1080 cells by gelatin zymography analysis; format: functional, cell-based
HL-60 [31] = experiment: […] human HL60 cells assessed NBT positive cells at 10 uM after 72 hrs by NBT reduction test; format: functional
HL-60 [32] = experiment: […] human HL60 cells assessed NBT positive cells at 30 uM after 72 hrs by NBT reduction test; format: functional
HL-60 [33] = experiment: Induction of human HL60 cells differentiation assessed as number of cells at 10 uM after 72 hrs by NBT reduction test; format: functional
HL-60 [34] = experiment: Induction of human HL60 cells differentiation assessed as number of cells at 20 uM after 72 hrs by NBT reduction test; format: functional
U-937 [35] = experiment: Antiproliferative activity against human U937 cells after 24 hrs by WST-8 assay; format: functional, cell-based; conditions: U-937, 24 h
U-937 [36] = experiment: Antiproliferative activity against human U937 cells after 48 hrs by WST-8 assay; format: functional, cell-based; conditions: U-937, 48 h
U-937 [37] = experiment: Antiproliferative activity against human U937 cells after 72 hrs by WST-8 assay; format: functional, cell-based; conditions: U-937, 72 h
HL-60 [38] = experiment: […] human HL60 cells assessed NBT positive cells at 0.01 uM after 72 hrs by NBT reduction test; format: functional
HL-60 [39] = experiment: […] human HL60 cells assessed NBT positive cells at 0.02 uM after 72 hrs by NBT reduction test; format: functional
HL-60 [40] = experiment: Induction of human HL60 cells differentiation assessed as number of cells at 0.01 uM after 72 hrs by NBT reduction test; format: functional
HL-60 [41] = experiment: Induction of human HL60 cells differentiation assessed as number of cells at 0.02 uM after 72 hrs by NBT reduction test; format: functional

Compound	inhibition at 3 µM (HT-1080 [2])	inhibition at 10 µM (HT-1080 [3])	inhibition at 30 µM (HT-1080 [4])	inhibition at 3 µM (HT-1080 [6])	inhibition at 10 µM (HT-1080 [7])	inhibition at 30 µM (HT-1080 [8])	inhibition at 3 µM (HT-1080 [10])	inhibition at 10 µM (HT-1080 [11])	inhibition at 30 µM (HT-1080 [12])	inhibition at 3 µM (HT-1080 [14])	inhibition at 10 µM (HT-1080 [15])	inhibition at 30 µM (HT-1080 [16])	inhibition at 3 µM (HT-1080 [18])	inhibition at 10 µM (HT-1080 [19])	inhibition at 30 µM (HT-1080 [20])	inhibition at 3 µM (HT-1080 [22])	inhibition at 10 µM (HT-1080 [23])	inhibition at 30 µM (HT-1080 [24])	inhibition at 3 µM (HT-1080 [26])	inhibition at 10 µM (HT-1080 [27])	further results
COc1cc2c(cc1OC)[C@]1(O)C(=O)c3ccc4c(c3O[C@@H]1CO2)C=CC(C)(C)O4 [TEPHROSIN]	29.6%	49.2%	67.6%	0.8%	2%	3.8%	97.9%	98.1%	98%	98.7%	98.9%	98.6%	7%	5.9%	13.7%	63%	67.7%	83.2%	97.9%	98.2%	inhibition at 1 µM (HT-1080 [1]): -9.3%; inhibition at 1 µM (HT-1080 [5]): -1.9%; inhibition at 1 µM (HT-1080 [9]): 96.4%; inhibition at 1 µM (HT-1080 [13]): 98.7%; inhibition at 1 µM (HT-1080 [17]): 5%; inhibition at 1 µM (HT-1080 [21]): 54%; inhibition at 1 µM (HT-1080 [25]): 97.8%; inhibition at 30 µM (HT-1080 [28]): 98.3%; Activity (HT-1080 [29]): Active; Activity (HT-1080 [30]): Active; Activity (HL-60 [31]): 5.9%; Activity (HL-60 [32]): 8.4%; Activity (HL-60 [33]): 4.5 10^5/ml; Activity (HL-60 [34]): 1 10^5/ml; IC50 (U-937 [35]): 30 µM; IC50 (U-937 [36]): 23 µM; IC50 (U-937 [37]): 7.3 µM
C=C1/C(=C\C=C2/CCC[C@]3(C)[C@@H]([C@H](C)CCCC(C)(C)O)CC[C@@H]23)C[C@@H](O)C[C@@H]1O [CALCITRIOL]																					Activity (HL-60 [38]): 15.6%; Activity (HL-60 [39]): 27.9%; Activity (HL-60 [40]): 8 10^5/ml; Activity (HL-60 [41]): 6.8 10^5/ml
O=c1c(-c2ccc(O)cc2)coc2cc(O)cc(O)c12 [GENISTEIN]	5.5%	35.1%	43.2%	-6.2%	-1.2%	12.5%	3.8%	9.3%	25.3%	-0.9%	1.7%	22.5%	2.8%	6.1%	17.3%	2%	5.1%	17.6%	1.5%	6%	inhibition at 30 µM (HT-1080 [28]): 17.2%; Activity (HL-60 [31]): 4.1%; Activity (HL-60 [32]): 11.2%; Activity (HL-60 [33]): 8.3 10^5/ml; Activity (HL-60 [34]): 5.3 10^5/ml; IC50 (U-937 [35]): > 100 µM; IC50 (U-937 [36]): 72 µM; IC50 (U-937 [37]): 48 µM
COc1cc2c(cc1OC)[C@@H]1C(=O)c3ccc4c(c3O[C@@H]1CO2)C=CC(C)(C)O4 [DEGUELIN]	50.2%	58%	57.9%	8.6%	10.7%	10.9%	96.5%	97.7%	97.3%	98.7%	98.8%	98.9%	-0.9%	-1.8%	17%	44.2%	51%	40.4%	98.5%	98.5%	inhibition at 1 µM (HT-1080 [1]): 38%; inhibition at 1 µM (HT-1080 [5]): 6.3%; inhibition at 1 µM (HT-1080 [9]): 78.3%; inhibition at 1 µM (HT-1080 [13]): 98.2%; inhibition at 1 µM (HT-1080 [17]): 10.5%; inhibition at 1 µM (HT-1080 [21]): 35.2%; inhibition at 1 µM (HT-1080 [25]): 95.3%; inhibition at 30 µM (HT-1080 [28]): 98.5%; Activity (HT-1080 [29]): Active; Activity (HT-1080 [30]): Active; Activity (HL-60 [31]): 12.5%; Activity (HL-60 [32]): 22.2%; Activity (HL-60 [33]): 2.1 10^5/ml; Activity (HL-60 [34]): 0.3 10^5/ml; IC50 (U-937 [35]): 42 µM; IC50 (U-937 [36]): 16 µM; IC50 (U-937 [37]): 5.8 µM
